Measurements reported in patent publication US20240116985A1, “STAPLED PEPTIDES AND METHODS THEREOF” (priority 2020, published 2024).
≈ marks a conversion by molar mass, not a printed value. Like-named read-outs stand apart in the source and are kept apart here.

Tests used:
[1] = target: T1, full-length beta-Catenin (Uniprot ID P35222) (Homo sapiens, UniProt P35222); test: Fluorescence polarization IC50 (beta-catenin / 5FAM-TCF4 10-53 competition); type: binding
T1 construct: 10 nM full-length beta-Catenin (Uniprot ID P35222)
T1 sequence (P35222 1-781): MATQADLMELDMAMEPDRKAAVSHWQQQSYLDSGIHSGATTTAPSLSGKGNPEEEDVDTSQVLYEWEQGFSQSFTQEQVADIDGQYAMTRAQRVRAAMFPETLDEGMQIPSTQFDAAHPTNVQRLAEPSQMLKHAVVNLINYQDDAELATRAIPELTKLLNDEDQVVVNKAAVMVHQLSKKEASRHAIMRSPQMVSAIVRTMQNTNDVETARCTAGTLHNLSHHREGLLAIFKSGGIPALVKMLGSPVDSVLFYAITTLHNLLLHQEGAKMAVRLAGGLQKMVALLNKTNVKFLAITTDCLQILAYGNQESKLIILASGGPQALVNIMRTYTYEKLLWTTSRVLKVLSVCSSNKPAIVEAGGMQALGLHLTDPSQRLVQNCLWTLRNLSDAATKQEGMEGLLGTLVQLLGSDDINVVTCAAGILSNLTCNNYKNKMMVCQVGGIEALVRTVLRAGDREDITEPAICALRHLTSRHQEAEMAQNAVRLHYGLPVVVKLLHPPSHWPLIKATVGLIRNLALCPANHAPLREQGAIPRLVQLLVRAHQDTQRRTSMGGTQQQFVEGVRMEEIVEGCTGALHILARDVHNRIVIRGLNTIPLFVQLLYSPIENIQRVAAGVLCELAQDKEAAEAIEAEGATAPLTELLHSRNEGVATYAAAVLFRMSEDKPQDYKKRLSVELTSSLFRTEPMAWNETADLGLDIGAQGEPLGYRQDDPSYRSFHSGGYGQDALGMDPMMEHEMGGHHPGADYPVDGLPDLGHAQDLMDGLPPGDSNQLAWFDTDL

[2] = CHI Log D procedure; type: physicochemical; settings: for chromatographic logD: pH 7.4, CHI Log D; for CHI Log D: pH 7.4
[3] = Solubility in PBS; type: physicochemical
Outline: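 Solubility is derived from HPLC peak areas: the ratio of the PBS supernatant peak to a 50 μM DMSO peptide peak, times 50 uM.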

[4] = fluorescence polarization, read-out: beta-Catenin FP IC50
[5] = Table E2-1, read-out: beta-Catenin FP IC50
[6] = fluorescence polarization, beta-catenin, read-out: FP EC50

Row | Compound | IC50 [1, 4] [µM] | chromatographic logD [2] | Solubility [3] [µM] | CHI Log D [2] | further results
1 | CC[C@H](C)[C@@H]1NC(=O)[C@H](CC(=O)O)NC(=O)[C@]2(CC=CCCCC3(CCCC=CCCCCCC[C@@](C)(C(=O)N[C@@H](Cc4ccccc4)C(=O)N[C@@H](Cc4csc5ccccc45)C(=O)N[C@@H](CCC(N)=O)C(N)=O)NC(=O)[C@H](CCC(N)=O)NC(=O)[C@H](Cc4ccccc4)NC(=O)[C@H](C)NC(=O)[C@H](C)NC(=O)[C@H](CCC(N)=O)NC(=O)[C@H](CC(=O)O)NC3=O)NC1=O)CCCN2C(C)=O (stereo partly drawn) [I-603, Ac-PL3-Asp-Ile-B5-Asp-Gln-Ala-Ala-Phe-Gln-S8-Phe-BztA-Gln-NH2] | 0.392 | 2.62 | 10 (≈ 18.8 µg/mL) | – | –
2 | CC(=O)N1CCC[C@]12CC=CCCCC1(CCCC=CCCCCCC[C@@](C)(C(=O)N[C@@H](Cc3ccccc3)C(=O)N[C@@H](Cc3csc4ccccc34)C(=O)N[C@@H](CCC(N)=O)C(N)=O)NC(=O)[C@H](CC(N)=O)NC(=O)[C@H](Cc3ccccc3)NC(=O)[C@H](C)NC(=O)[C@H](C)NC(=O)[C@H](CC(=O)O)NC(=O)[C@H](CC(=O)O)NC1=O)NC(=O)[C@H](C)NC(=O)[C@H](CC(=O)O)NC2=O (stereo partly drawn) [I-343, Ac-PL3-Asp-Ala-B5-Asp-Asp-Ala-Ala-Phe-Asn-S8-Phe-BztA-Gln-NH2] | – | – | 50 (≈ 90.7 µg/mL) | 1.931 | IC50 [1, 5]: 0.172 µM; IC50 [1, 6]: 0.172 µM
3 | CC(=O)N1CCC[C@]12CC=CCCCC1(CCCC=CCCCCCC[C@@](C)(C(=O)N[C@@H](Cc3ccccc3)C(=O)N[C@@H](Cc3csc4ccccc34)C(=O)N[C@@H](Cc3c[nH]cn3)C(N)=O)NC(=O)[C@H](CCCNC(N)=O)NC(=O)[C@H](Cc3ccccc3)NC(=O)[C@H](C)NC(=O)[C@H](C)NC(=O)[C@H](CCC(=O)O)NC(=O)[C@H](CC(=O)O)NC1=O)NC(=O)[C@H](CC(C)C)NC(=O)[C@H](CC(=O)O)NC2=O (stereo partly drawn) [I-616, Ac-PL3-Asp-Leu-B5-Asp-Glu-Ala-Ala-Phe-Cit-S8-Phe-BztA-His-NH2] | 0.108 | 2.41 | 10 (≈ 19.2 µg/mL) | – | –
4 | CC(=O)N1CCC[C@]12CC=CCCCC1(CCCC=CCCCCCC[C@@](C)(C(=O)N[C@@H](Cc3cccc(F)c3)C(=O)N[C@@H](Cc3c[nH]c4ccccc34)C(=O)N[C@@H](CCC(N)=O)C(N)=O)NC(=O)[C@H](CCC(N)=O)NC(=O)[C@H](Cc3cccs3)NC(=O)[C@H](C)NC(=O)[C@H](C)NC(=O)[C@H](CCC(=O)O)NC(=O)[C@H](CC(=O)O)NC1=O)NC(=O)[C@H](C)NC(=O)[C@H](CC(=O)O)NC2=O (stereo partly drawn) [I-450, Ac-PL3-Asp-Ala-B5-Asp-Glu-Ala-Ala-2Thi-Gln-S8-3FF-Trp-Gln-NH2] | 3.72 | 1.88 | 50 (≈ 92.4 µg/mL) | – | –
5 | CC(=O)N1CCC[C@]12CC=CCCCC1(CCCC=CCCCCCC[C@@](C)(C(=O)N[C@@H](Cc3ccccc3)C(=O)N[C@@H](Cc3csc4ccccc34)C(=O)N[C@@H](CCC(N)=O)C(N)=O)NC(=O)[C@H](CC(N)=O)NC(=O)[C@H](Cc3ccccc3)NC(=O)[C@H](C)NC(=O)[C@H](C)NC(=O)[C@H](Cc3nn[nH]n3)NC(=O)[C@H](CC(=O)O)NC1=O)NC(=O)[C@H](C)NC(=O)[C@H](CC(=O)O)NC2=O (stereo partly drawn) [I-444, Ac-PL3-Asp-Ala-B5-Asp-Tetz-Ala-Ala-Phe-Asn-S8-Phe-BztA-Gln-NH2] | 0.08 | 1.99 | 50 (≈ 91.9 µg/mL) | – | –
6 | CC[C@H](C)[C@H](NC(=O)[C@H](Cc1c[nH]cn1)NC(=O)[C@H](Cc1csc2ccccc12)NC(=O)[C@H](Cc1ccccc1)NC(=O)[C@]1(C)CCCCCCC=CCCCC2(CCCC=CC[C@]3(CCCN3C(C)=O)C(=O)N[C@@H](CC(=O)O)C(=O)N[C@@H](CC(C)C)C(=O)N2)C(=O)N[C@@H](CC(=O)O)C(=O)N[C@@H](CCC(=O)O)C(=O)N[C@@H](C)C(=O)N[C@@H](C)C(=O)N[C@@H](Cc2ccccc2)C(=O)N[C@@H](CC(N)=O)C(=O)N1)C(N)=O (stereo partly drawn) [I-741, Ac-PL3-Asp-Leu-B5-Asp-Glu-Ala-Ala-Phe-Asn-S8-Phe-BztA-His-Ile-NH2] | 0.226 | – | 10 (≈ 19.9 µg/mL) | 2.915 | IC50 ([1]; read-out: FP EC50): 0.226 µM
7 | CC(=O)N1CCC[C@]12CC=CCCCC1(CCCC=CCCCCCC[C@@](C)(C(=O)N[C@@H](Cc3cccc(F)c3)C(=O)N[C@@H](Cc3csc4ccccc34)C(N)=O)NC(=O)[C@H](CCC(N)=O)NC(=O)[C@H](Cc3ccsc3)NC(=O)[C@H](C)NC(=O)[C@H](C)NC(=O)[C@H](CCC(=O)O)NC(=O)[C@H](CC(=O)O)NC1=O)NC(=O)[C@H](C)NC(=O)[C@H](CC(=O)O)NC2=O (stereo partly drawn) [I-431, Ac-PL3-Asp-Ala-B5-Asp-Glu-Ala-Ala-3Thi-Gln-S8-3FF-BztA-NH2] | 1.32 | 2.23 | – | – | Solubility ([3]; Solubility (uM)): 33 µM (≈ 57.3 µg/mL)
8 | CC(=O)N1CCC[C@]12CC=CCCCC1(CCCC=CCCCCCC[C@@](C)(C(=O)N[C@@H](Cc3ccccc3)C(=O)N[C@@H](Cc3c[nH]c4ccccc34)C(=O)N[C@@H](CCC(N)=O)C(N)=O)NC(=O)[C@H](C(C)C)NC(=O)C(Cc3cncn3C)NC(=O)[C@H](C)NC(=O)[C@H](C)NC(=O)[C@H](CC(=O)O)NC(=O)[C@H](CC(=O)O)NC1=O)NC(=O)[C@H](C)NC(=O)[C@H](CC(=O)O)NC2=O (single isomer, unassigned) [I-331, Ac-PL3-Asp-Ala-B5-Asp-Asp-Ala-Ala-3meH-Val-S8-Phe-Trp-Gln-NH2] | – | 2.02 | – | – | IC50 [1, 5]: 5 µM; solubility at 15 min ([3]; Solubility (uM)): 41 µM (≈ 73.2 µg/mL)
9 | CC(=O)N1CCC[C@]12CC=CCCCC1(CCCC=CCCCOC(=O)N3CC[C@@](C(=O)N[C@@H](Cc4ccccc4Cl)C(=O)N[C@@H](Cc4csc5ccccc45)C(=O)N[C@@H](CO)C(N)=O)(C3)NC(=O)[C@H](CC3CCCCC3)NC(=O)[C@H](Cc3ccccc3)NC(=O)[C@H](C)NC(=O)[C@H](C)NC(=O)[C@H](CC(=O)O)NC(=O)[C@H](CC(=O)O)NC1=O)NC(=O)[C@H](CC1CCCCC1)NC(=O)[C@H](CC(=O)O)NC2=O (stereo partly drawn) [I-1113, Ac-PL3-Asp-Cha-B5-Asp-Asp-Ala-Ala-Phe-Cha-PyrS2-2C1F-BztA-Ser-NH2] | – | 2.99 | 10 (≈ 19.7 µg/mL) | – | IC50 ([1]; read-out: beta-Catenin FP IC50): 0.064 µM
10 | CC(=O)N1CCC[C@]12CC=CCCCC1(CCCC=CCCCOC(=O)N3CC[C@@](C(=O)N[C@@H](Cc4ccccc4)C(=O)N[C@@H](Cc4csc5ccccc45)C(=O)N[C@@H](CCC(N)=O)C(N)=O)(C3)NC(=O)[C@H](CC(C)C)NC(=O)[C@H](Cc3ccccc3)NC(=O)[C@H](C)NC(=O)[C@H](C)NC(=O)[C@H](CCC(=O)O)NC(=O)[C@H](CC(=O)O)NC1=O)NC(=O)[C@H](CC(C)(C)C)NC(=O)[C@H](CC(=O)O)NC2=O (stereo partly drawn) [I-1074, Ac-PL3-Asp-Npg-B5-Asp-Glu-Ala-Ala-Phe-Leu-PyrS2-Phe-BztA-Gln-NH2] | – | – | 34 (≈ 65.5 µg/mL) | 1.92 | IC50 [1, 6]: 0.498 µM; IC50 ([1]; read-out: beta-Catenin FP IC50): 0.498 µM
11 | CC(=O)N1CCC[C@]12CC=CCCCC1(CCCC=CCCCCCC[C@@](C)(C(=O)N[C@@H](Cc3ccccc3)C(=O)N[C@@H](Cc3csc4ccccc34)C(=O)N[C@@H](CCC(N)=O)C(N)=O)NC(=O)[C@H](CCCNC(N)=O)NC(=O)[C@H](Cc3ccccc3)NC(=O)[C@H](C)NC(=O)[C@H](C)NC(=O)[C@H](CCC(=O)O)NC(=O)[C@H](CC(=O)O)NC1=O)NC(=O)[C@H](CC(C)C)NC(=O)[C@H](CC(=O)O)NC2=O (stereo partly drawn) [I-621, Ac-PL3-Asp-Leu-B5-Asp-Glu-Ala-Ala-Phe-Cit-S8-Phe-BztA-Gln-NH2] | 0.058 | 2.34 | 50 (≈ 95.6 µg/mL) | – | –
12 | CC[C@H](C)[C@@H]1NC(=O)[C@H](CC(=O)O)NC(=O)[C@]2(CC=CCCCC3(CCCC=CCCCCCC[C@@](C)(C(=O)N[C@@H](Cc4ccccc4)C(=O)N[C@@H](Cc4csc5ccccc45)C(=O)N[C@@H](CCC(N)=O)C(N)=O)NC(=O)[C@H](CCC(N)=O)NC(=O)[C@H](Cc4ccccc4)NC(=O)[C@H](CC(C)C)NC(=O)[C@H](C)NC(=O)[C@H](CCC(=O)O)NC(=O)[C@H](CC(=O)O)NC3=O)NC1=O)CCCN2C(C)=O (stereo partly drawn) [I-658, Ac-PL3-Asp-Ile-B5-Asp-Glu-Ala-Leu-Phe-Gln-S8-Phe-BztA-Gln-NH2] | 0.546 | – | 48 (≈ 92.4 µg/mL) | 2.859 | IC50 ([1]; read-out: FP EC50): 0.546 µM
13 | CC(=O)N1CCC[C@]12CC=CCCCC1(CCCC=CCCCCCC[C@@](C)(C(=O)N[C@@H](Cc3ccccc3)C(=O)N[C@@H](Cc3csc4ccccc34)C(=O)N[C@@H](CCC(N)=O)C(N)=O)NC(=O)[C@H](C)NC(=O)[C@H](Cc3ccccc3C)NC(=O)[C@H](C)NC(=O)[C@H](C)NC(=O)[C@H](CC(=O)O)NC(=O)[C@H](CC(=O)O)NC1=O)NC(=O)[C@H](C)NC(=O)[C@H](CC(=O)O)NC2=O (stereo partly drawn) [I-365, Ac-PL3-Asp-Ala-B5-Asp-Asp-Ala-Ala-2MeF-Ala-S8-Phe-BztA-Gln-NH2] | – | – | 48 (≈ 85.6 µg/mL) | 2.038 | IC50 [1, 5]: 2.72 µM; IC50 [1, 6]: 2.72 µM
